Measurements published in ChEMBL document CHEMBL3046423, “SQ109 analogues as potential antimicrobial candidates” (2011).
Converted amounts (≈) assume the structure as drawn.

Assays:
Format in all cases: functional
[1] = tested on: Elizabethkingia meningoseptica; experiment: Antibacterial activity against Elizabethkingia meningoseptica ATCC 13253 after 16 to 18 hr by broth microdilution method
[2] = tested on: Klebsiella pneumoniae; experiment: Antibacterial activity against Klebsiella pneumoniae ATCC 700603 after 16 to 18 hr by broth microdilution method
[3] = tested on: Klebsiella oxytoca; experiment: Antibacterial activity against Klebsiella oxytoca ATCC 13182 after 16 to 18 hr by broth microdilution method
[4] = tested on: Escherichia coli; experiment: Antibacterial activity against Escherichia coli ATCC 35218 after 16 to 18 hr by broth microdilution method
[5] = tested on: Staphylococcus aureus; experiment: Antibacterial activity against Staphylococcus aureus ATCC 43300 after 16 to 18 hr by broth microdilution method
[6] = tested on: Staphylococcus xylosus; experiment: Antibacterial activity against Staphylococcus xylosus ATCC 35033 after 16 to 18 hr by broth microdilution method
[7] = tested on: Prescottella equi; experiment: Antibacterial activity against Rhodococcus equi ATCC 6939 after 16 to 18 hr by broth microdilution method; settings: Rhodococcus (subgen. Prescottella) equi
[8] = tested on: Bacillus subtilis; experiment: Antibacterial activity against Bacillus subtilis ATCC 6051 after 16 to 18 hr by broth microdilution method
[9] = tested on: Aspergillus flavus; experiment: Antifungal activity against Aspergillus flavus MRC 2527 after 24 hr by broth microdilution method; settings: MRC 2527, 24 h
[10] = tested on: Penicillium sp.; experiment: Antifungal activity against Penicillium sp. after 24 hr by broth microdilution method
[11] = tested on: Rhizomucor; experiment: Antifungal activity against Rhizomucor spp. after 24 hr by broth microdilution method
[12] = tested on: Scopulariopsis; experiment: Antifungal activity against Scopulariopsis spp. after 24 hr by broth microdilution method
[13] = tested on: Sporothrix schenckii; experiment: Antifungal activity against Sporothrix schenckii after 24 hr by broth microdilution method
[14] = tested on: Aspergillus flavus; experiment: Antifungal activity against Aspergillus flavus after 24 hr by broth microdilution method
[15] = tested on: Fusarium sp.; experiment: Antifungal activity against Fusarium sp. after 24 hr by broth microdilution method
[16] = tested on: Aspergillus fumigatus; experiment: Antifungal activity against Aspergillus fumigatus after 24 hr by broth microdilution method
[17] = tested on: Candida parapsilosis; experiment: Antifungal activity against fluconazole-resistant Candida parapsilosis after 24 hr by broth microdilution method; settings: Lodderomyces parapsilosis
[18] = tested on: Pichia kudriavzevii; experiment: Antifungal activity against fluconazole-resistant Pichia kudriavzevii after 24 hr by broth microdilution method
[19] = tested on: Candida albicans; experiment: Antifungal activity against Candida albicans ATCC 90028 after 24 hr by broth microdilution method; settings: ATCC 90028, 24 h
[20] = tested on: Trichosporon asahii; experiment: Antifungal activity against Trichosporon asahii after 24 hr by broth microdilution method
[21] = tested on: Candida parapsilosis; experiment: Antifungal activity against Candida parapsilosis ATCC 22019 after 24 hr by broth microdilution method; settings: Lodderomyces parapsilosis, ATCC 22019, 24 h
[22] = tested on: Candida tropicalis; experiment: Antifungal activity against Candida tropicalis after 24 hr by broth microdilution method
[23] = tested on: Pichia kudriavzevii; experiment: Antifungal activity against Pichia kudriavzevii after 24 hr by broth microdilution method
[24] = tested on: Cyberlindnera jadinii; experiment: Antifungal activity against Cyberlindnera jadinii after 24 hr by broth microdilution method; settings: Williopsis jadinii
[25] = tested on: Candida albicans; experiment: Antifungal activity against fluconazole-susceptible Candida albicans
[26] = tested on: Candida albicans; experiment: Antifungal activity against fluconazole-resistant Candida albicans

Row | SMILES | MIC [1] | MIC [2] | MIC [3] | MIC [4] | MIC [5] | MIC [6] | MIC [7] | MIC [8] | MIC [9] | MIC [10] | MIC [11] | MIC [12] | MIC [13] | MIC [14] | MIC [15] | MIC [17] | MIC [19] | MIC [20] | MIC [21] | MIC [24] | other results
1 | CC(C)CCCC(C)CCNCCNC1C2CC3CC(C2)CC1C3.Cl (stereo not drawn) | 31.2 µg/mL | 125 µg/mL | 62.5 µg/mL | 31.2 µg/mL | 31.2 µg/mL | 15.6 µg/mL | 7.8 µg/mL | 15.6 µg/mL | 25 µg/mL | 3.9 µg/mL | 7.8 µg/mL | 1.95 µg/mL | 0.49 µg/mL | 31.2 µg/mL | 7.8 µg/mL | 7.8 µg/mL | 3.9 µg/mL | 7.8 µg/mL | 7.8 µg/mL | 1.95 µg/mL | MIC [16]: 7.8 µg/mL; MIC [18]: 0.98 µg/mL; MIC [22]: 7.8 µg/mL; MIC [23]: 7.8 µg/mL
2 | CC(C)=CCC/C(C)=C/CC/C(C)=C/CNCCNC1C2CC3CC(C2)CC1C3.Cl (stereo not drawn) | 15.6 µg/mL | 125 µg/mL | 15.6 µg/mL | 7.8 µg/mL | 15.6 µg/mL | 7.8 µg/mL | 7.8 µg/mL | 7.8 µg/mL | 25 µg/mL | 3.9 µg/mL | 7.8 µg/mL | 3.9 µg/mL | 0.98 µg/mL | 15.6 µg/mL | 7.8 µg/mL | 3.9 µg/mL | 7.8 µg/mL | 3.9 µg/mL | 7.8 µg/mL | 1.95 µg/mL | MIC [16]: 7.8 µg/mL; MIC [18]: 1.95 µg/mL; MIC [22]: 3.9 µg/mL; MIC [23]: 3.9 µg/mL
3 | CC(C)CCCC(C)CCCC(C)CCNCCNC1C2CC3CC(C2)CC1C3.Cl (stereo not drawn) | 7.8 µg/mL | 250 µg/mL | 31.2 µg/mL | 7.8 µg/mL | 7.8 µg/mL | 3.9 µg/mL | 3.9 µg/mL | 3.9 µg/mL | > 100 µg/mL | 6.25 µg/mL | 12.5 µg/mL | 3.13 µg/mL | 1.56 µg/mL | 25 µg/mL | 12.5 µg/mL | 6.25 µg/mL | 6.25 µg/mL | 6.25 µg/mL | 6.25 µg/mL | 3.13 µg/mL | MIC [16]: 12.5 µg/mL; MIC [18]: 3.13 µg/mL; MIC [22]: 6.25 µg/mL; MIC [23]: 6.25 µg/mL
4 | CC(C)=CCC/C(C)=C/CNCCNC12CC3CC(CC(C3)C1)C2.Cl | 500 µg/mL | 1000 µg/mL | 500 µg/mL | 500 µg/mL | 500 µg/mL | 250 µg/mL | 125 µg/mL | 125 µg/mL | > 100 µg/mL | 62.5 µg/mL | 125 µg/mL | 125 µg/mL | 3.9 µg/mL | > 500 µg/mL | 250 µg/mL | 125 µg/mL | 31.2 µg/mL | 125 µg/mL | 250 µg/mL | 31.2 µg/mL | MIC [16]: 125 µg/mL; MIC [18]: 15.6 µg/mL; MIC [22]: 62.5 µg/mL; MIC [23]: 125 µg/mL
5 | CC(C)CCCC(C)CCNCCNC12CC3CC(CC(C3)C1)C2.Cl (stereo not drawn) | 31.2 µg/mL | 62.5 µg/mL | 62.5 µg/mL | 31.2 µg/mL | 62.5 µg/mL | 15.6 µg/mL | 15.6 µg/mL | 15.6 µg/mL | 25 µg/mL | 7.8 µg/mL | 7.8 µg/mL | 1.95 µg/mL | 0.49 µg/mL | 31.2 µg/mL | 7.8 µg/mL | 7.8 µg/mL | 3.9 µg/mL | 7.8 µg/mL | 15.6 µg/mL | 1.95 µg/mL | MIC [16]: 15.6 µg/mL; MIC [18]: 0.98 µg/mL; MIC [22]: 3.9 µg/mL; MIC [23]: 15.6 µg/mL
6 | CC(C)=CCC/C(C)=C/CNCCNC1C2CC3CC(C2)CC1C3.Cl (stereo not drawn) | 500 µg/mL | 1000 µg/mL | 500 µg/mL | 500 µg/mL | 1000 µg/mL | 500 µg/mL | 125 µg/mL | 500 µg/mL | > 100 µg/mL | 125 µg/mL | 125 µg/mL | 62.5 µg/mL | 1.95 µg/mL | 500 µg/mL | 125 µg/mL | 250 µg/mL | 125 µg/mL | 125 µg/mL | 250 µg/mL | 15.6 µg/mL | MIC [16]: 250 µg/mL; MIC [18]: 15.6 µg/mL; MIC [22]: 32.5 µg/mL; MIC [23]: 250 µg/mL; MIC [25]: 4 µg/mL; MIC [26]: 4 µg/mL
7 | C[C@@H]1[C@H](O)[C@@H](C)/C=C/C=C/C=C/C=C/C=C/C=C/C=C/[C@H](O[C@@H]2O[C@H](C)[C@@H](O)[C@H](N)[C@@H]2O)C[C@@H]2O[C@](O)(C[C@@H](O)C[C@@H](O)[C@H](O)CC[C@@H](O)C[C@@H](O)CC(=O)O[C@H]1C)C[C@H](O)[C@H]2C(=O)O [AMPHOTERICIN B] |  |  |  |  |  |  |  |  |  |  | 0.31 µg/mL (≈ 0.335 µM) | 10 µg/mL (≈ 10.8 µM) | 5 µg/mL (≈ 5.41 µM) |  | 2.5 µg/mL (≈ 2.71 µM) | 0.02 µg/mL (≈ 0.0216 µM) | 0.62 µg/mL (≈ 0.671 µM) | 0.31 µg/mL (≈ 0.335 µM) | 0.04 µg/mL (≈ 0.0433 µM) | 0.31 µg/mL (≈ 0.335 µM) | 
8 | NC[C@@H]1O[C@H](O[C@H]2[C@@H](O)[C@H](O[C@@H]3[C@@H](O)[C@H](N)C[C@H](N)[C@H]3O[C@H]3O[C@H](CN)[C@@H](O)[C@H](O)[C@H]3N)O[C@@H]2CO)[C@H](N)[C@@H](O)[C@@H]1O [FRAMYCETIN] | 12.5 µg/mL (≈ 20.3 µM) | 6.25 µg/mL (≈ 10.2 µM) | 6.25 µg/mL (≈ 10.2 µM) | 3.13 µg/mL (≈ 5.09 µM) | 25 µg/mL (≈ 40.7 µM) | 0.2 µg/mL (≈ 0.325 µM) | 1.56 µg/mL (≈ 2.54 µM) | 0.78 µg/mL (≈ 1.27 µM) |  |  |  |  |  |  |  |  |  |  |  |  | 
